The values below are quoted from earlier work in patent US10919913B2, “Spiro[3H-indole-3,2′-pyrrolidin]-2(1H)-one compounds and derivatives as MDM2-p53 inhibitors” (Boehringer Ingelheim International GmbH, priority 2014, dated 2021).

This data set has as its system p53 wild-type vs. p53 mutant cell lines. The note with it: in vitro, PPTP of the NCI (Carol et al. 2013).

As to `CCOc1cc(C(C)(C)C)ccc1C1=N[C@@](C)(c2ccc(Cl)cc2)[C@@](C)(c2ccc(Cl)cc2)N1C(=O)N1CCN(CCCS(C)(=O)=O)CC1` [RG-7112], the “cytotoxic activity, median IC50 p53 wild-type vs. p53 mutant cell lines” value is given as “lower median IC50 values for p53 wild-type vs. p53 mutant cell lines”.
